Assay results reported in the NIST ThermoML archive (doi:10.1016/j.fluid.2005.08.001).

Experiments:
[1] = 298.15 K; 101.33 kPa; Liquid
[2] = excess molar enthalpy (molar enthalpy of mixing); xn = mol fraction of the nth substance listed; conditions: 298.15 K, 101.33 kPa, Liquid, Flow calorimetry

CCCCCC [hexane]
Conditions | mass density [kg/m3]
[1] | 654.9

CCN(CC)CC [triethylamine]
Conditions | mass density [kg/m3]
[1] | 722.56

CCCCO [butan-1-ol]
Conditions | mass density [kg/m3]
[1] | 805.74

CCO [ethanol]
Conditions | mass density [kg/m3]
[1] | 785.07

CCN(CC)CC [triethylamine] + CCO
[2]
Conditions | excess molar enthalpy [kJ/mol]
x2 = 0.1116 | -0.374
x2 = 0.1621 | -0.561
x2 = 0.2096 | -0.684
x2 = 0.2542 | -0.823
x2 = 0.2963 | -0.94
x2 = 0.3361 | -1.02
x2 = 0.4093 | -1.19
x2 = 0.5056 | -1.33
x2 = 0.5623 | -1.38
x2 = 0.614 | -1.38
x2 = 0.7047 | -1.31
x2 = 0.7991 | -1.1
x2 = 0.8477 | -0.918
x2 = 0.8774 | -0.784
x2 = 0.9052 | -0.639
x2 = 0.9311 | -0.484
x2 = 0.9555 | -0.321

CCCCCC [hexane] + CCCCO
[2]
Conditions | excess molar enthalpy [kJ/mol]
x2 = 0.0199 | 0.221
x2 = 0.0399 | 0.287
x2 = 0.05 | 0.309
x2 = 0.06 | 0.328
x2 = 0.0799 | 0.364
x2 = 0.0999 | 0.395
x2 = 0.1499 | 0.459
x2 = 0.2 | 0.513
x2 = 0.25 | 0.542
x2 = 0.2999 | 0.557
x2 = 0.35 | 0.559
x2 = 0.4001 | 0.547
x2 = 0.4501 | 0.529
x2 = 0.5 | 0.501
x2 = 0.55 | 0.467
x2 = 0.6001 | 0.425
x2 = 0.6501 | 0.381
x2 = 0.7 | 0.33
x2 = 0.7501 | 0.278
x2 = 0.7999 | 0.224
x2 = 0.85 | 0.167
x2 = 0.8999 | 0.109
x2 = 0.95 | 0.0461

CCCCCC [hexane] + CCO
[2]
Conditions | excess molar enthalpy [kJ/mol]
x2 = 0.0544 | 0.28
x2 = 0.1056 | 0.415
x2 = 0.1538 | 0.48
x2 = 0.1994 | 0.527
x2 = 0.2426 | 0.55
x2 = 0.2835 | 0.569
x2 = 0.3592 | 0.58
x2 = 0.4277 | 0.568
x2 = 0.4596 | 0.561
x2 = 0.49 | 0.564
x2 = 0.5191 | 0.556
x2 = 0.5992 | 0.512
x2 = 0.6472 | 0.484
x2 = 0.7125 | 0.445
x2 = 0.8064 | 0.355
x2 = 0.8997 | 0.224
x2 = 0.9528 | 0.122

CCN(CC)CC [triethylamine] + CCCCCC
[2]
Conditions | excess molar enthalpy [kJ/mol]
x1 = 0.025 | 0.0056
x1 = 0.05 | 0.0154
x1 = 0.075 | 0.0196
x1 = 0.1 | 0.0293
x1 = 0.15 | 0.0437
x1 = 0.2 | 0.0544
x1 = 0.25 | 0.0637
x1 = 0.3 | 0.0703
x1 = 0.35 | 0.0761
x1 = 0.4 | 0.0793
x1 = 0.45 | 0.0809
x1 = 0.5 | 0.0818
x1 = 0.6 | 0.0794
x1 = 0.65 | 0.0722
x1 = 0.7 | 0.0679
x1 = 0.75 | 0.0583
x1 = 0.8 | 0.0512
x1 = 0.85 | 0.0388
x1 = 0.9 | 0.0279
x1 = 0.95 | 0.0135

CCN(CC)CC [triethylamine] + CCCCO
[2]
Conditions | excess molar enthalpy [kJ/mol]
x2 = 0.0501 | -0.0888
x2 = 0.1 | -0.329
x2 = 0.1502 | -0.543
x2 = 0.1999 | -0.653
x2 = 0.2536 | -0.819
x2 = 0.3001 | -0.954
x2 = 0.3499 | -1.11
x2 = 0.3999 | -1.18
x2 = 0.4499 | -1.27
x2 = 0.5 | -1.35
x2 = 0.5499 | -1.38
x2 = 0.5999 | -1.4
x2 = 0.6499 | -1.38
x2 = 0.7001 | -1.32
x2 = 0.7501 | -1.22
x2 = 0.7999 | -1.08
x2 = 0.85 | -0.916
x2 = 0.8999 | -0.693
x2 = 0.9499 | -0.368
x2 = 0.9792 | -0.172
